Measurements as given in US8394828B2 (Janssen Pharmaceutica, NV, priority 2003, dated 2013).

Columns and labels:
human VR1 [1] = biological target: T1, human VR1 (Homo sapiens, UniProt Q8NER1); assay: Human VR1 functional assay (intracellular Ca++, FLIPR, capsaicin challenge); assay type: cell-based; conditions: hVR1, capsaicin challenge, read-out: FLIPR functional assay IC50 hVR1
T1 construct: expressed in transfected cells; host or cells: HEK293
Experimental: The functional activity of the test compounds was determined by measuring changes in intracellular calcium concentration using a Ca^++-sensitive fluorescent dye and FLIPR™ technology.
EC50 or IC50 values were determined from dose-response studies.

human VR1 [2] = biological target: T1, human VR1; assay: Human VR1 [3H] RTX binding assay; conditions: 3H-RTX binding; for inhibition at 1 µM: compound at 1 μM; for Ki: hVR1, read-out: 3H-RTX binding assay Ki hVR1
Experimental: Compounds of the present invention were tested for their ability to inhibit the binding of [^3H] RTX to hVR1 receptors in a [^3H]
HEK293 cells were transfected with human VR1 vanilloid receptors and washed with Hank's Balanced Salt Solution, dissociated with cell dissociation buffer (Sigma), and then centrifuged at 1000×g for 5 min. […] The pelleted membranes were kept in an −80° C. freezer.
Approximately 120 μg protein/ml from membranes were incubated with indicated concentrations of [^3H] RTX in 0.5 ml of the HEPES buffer (pH 7.4) containing 0.25 mg/mL fatty acid-free bovine serum albumin at 37° C. for 60 min. […] The tip of the microcentrifuge tube containing the pellet was cut off. Bound radioactivity was quantified by scintillation counting. Non-specific binding was tested in the presence of 200 nM unlabeled RTX.

T1 sequence (Q8NER1 whole entry): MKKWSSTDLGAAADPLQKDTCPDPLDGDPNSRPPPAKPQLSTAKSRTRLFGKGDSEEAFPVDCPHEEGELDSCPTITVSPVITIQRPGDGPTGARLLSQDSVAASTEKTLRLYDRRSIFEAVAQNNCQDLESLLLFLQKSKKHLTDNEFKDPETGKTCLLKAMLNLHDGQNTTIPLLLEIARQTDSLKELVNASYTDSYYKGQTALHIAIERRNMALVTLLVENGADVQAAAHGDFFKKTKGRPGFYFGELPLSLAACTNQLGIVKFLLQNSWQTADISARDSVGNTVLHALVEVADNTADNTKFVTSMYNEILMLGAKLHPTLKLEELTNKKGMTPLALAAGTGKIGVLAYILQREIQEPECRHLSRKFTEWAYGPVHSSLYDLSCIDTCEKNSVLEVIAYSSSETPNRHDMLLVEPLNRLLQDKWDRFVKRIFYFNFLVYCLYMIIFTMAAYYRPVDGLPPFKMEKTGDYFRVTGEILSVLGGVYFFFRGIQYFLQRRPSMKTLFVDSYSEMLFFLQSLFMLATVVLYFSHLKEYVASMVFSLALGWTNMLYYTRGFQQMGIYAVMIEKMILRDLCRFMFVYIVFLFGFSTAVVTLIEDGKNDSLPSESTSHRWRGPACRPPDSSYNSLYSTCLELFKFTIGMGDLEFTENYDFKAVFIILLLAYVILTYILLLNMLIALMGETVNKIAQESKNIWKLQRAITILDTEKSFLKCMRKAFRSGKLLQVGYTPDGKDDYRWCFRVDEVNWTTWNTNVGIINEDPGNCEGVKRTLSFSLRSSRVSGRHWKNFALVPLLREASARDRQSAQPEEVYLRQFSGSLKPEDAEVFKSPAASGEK

Compound	IC50 (human VR1 [1])	inhibition at 1 µM (human VR1 [2])	Ki (human VR1 [2])
O=C(Nc1cnc2ccccc2c1Cl)c1ccc2c(ccn2C2CCCCC2)c1 [1-Cyclohexyl-1H-indole-5-carboxylic acid (4-chloro-quinolin-3-yl)-amide]	166 nM	–	–
O=C(Nc1cnc2ccccc2c1)c1ccc2c(ccn2C2CCCCC2)c1 [1-Cyclohexyl-1H-indole-5-carboxylic acid quinolin-3-ylamide]	74 nM	–	–
O=C(Nc1cnc2ccccc2c1)c1ccc(N2CCC(C(=O)c3ccccc3)CC2)cc1 [4-(4-Benzoyl-piperidin-1-yl)-N-quinolin-3-yl-benzamide]	–	61%	276 nM
O=C(Nc1cnc2ccccc2c1)c1ccc(N2CCC(c3ccccc3)CC2)cc1 [4-(4-Phenyl-piperidin-1-yl)-N-quinolin-3-yl-benzamide]	–	34%	29300 nM
CCCCCN(Cc1ccccc1)c1ccc(C(=O)Nc2cnc3ccccc3c2)cc1 [4-(Benzyl-pentyl-amino)-N-quinolin-3-yl-benzamide]	–	67%	169 nM
Cc1cc(C(=O)Nc2cnc3ccccc3c2)ccc1NCC1CCCCC1 [4-(Cyclohexylmethyl-amino)-3-methyl-N-quinolin-3-yl-benzamide]	–	111%	87 nM
O=C(Nc1cnc2ccccc2c1)c1ccc(N(CCc2ccccc2)CC2CCCCC2)cc1 [4-(Cyclohexylmethyl-phenethyl-amino)-N-quinolin-3-yl-benzamide]	–	87%	162 nM
CCCCCN(CCCCC)c1ccc(C(=O)Nc2cnc3ccccc3c2)cc1 [4-Dipentylamino-N-quinolin-3-yl-benzamide]	–	–	158 nM
O=C(Nc1cnc2ccccc2c1)c1ccc(N2CCOCC2)cc1 [4-Morpholin-4-yl-N-quinolin-3-yl-benzamide]	–	4%	–
O=C(Nc1cnc2ccccc2c1)c1ccc(N2CCCCC2)cc1 [4-Piperidin-1-yl-N-quinolin-3-yl-benzamide]	–	60%	61.2 nM
O=C(Nc1cnc2ccccc2c1)c1ccc(N2CCCC2)cc1 [4-Pyrrolidin-1-yl-N-quinolin-3-yl-benzamide]	–	27%	–
O=C(Nc1cnc2ccccc2c1)c1ccc(N2CCC(N3CCCCC3)CC2)cc1 [4-[1,4′]Bipiperidinyl-1′-yl-N-quinolin-3-yl-benzamide]	–	8%	–
CCCCC(C)(C)c1ccc(C=CCC(=O)Nc2cnc3ccccc3c2)cc1 [4-{4-(1,1-Dimethyl-pentyl)-phenyl}-but-3-enoic acid quinolin-3-ylamide]	–	80%	194 nM
CCC(C)(C)c1ccc(CCCC(=O)Nc2cnc3ccccc3c2)cc1 [4-{4-(1,1-Dimethyl-propyl)-phenyl}-N-quinolin-3-yl-butyramide]	–	65%	527 nM
CN(CC=Cc1ccccc1)c1ccc(C(=O)Nc2cnc3ccccc3c2)cc1 [4-{Methyl-(3-phenyl-allyl)-amino}-N-quinolin-3-yl-benzamide]	–	79%	125 nM
CN(c1ccc(C(=O)Nc2cnc3ccccc3c2)cc1)C1CCOCC1 [4-{Methyl-(tetrahydro-pyran-4-yl)-amino}-N-quinolin-3-yl-benzamide]	–	19%	–
CC1(C)CCC(C)(C)c2cc(C(=O)Nc3cnc4ccccc4c3)ccc21 [5,5,8,8-Tetramethyl-5,6,7,8-tetrahydro-naphthalene-2-carboxylic acid quinolin-3-ylamide]	–	–	30.4 nM
O=C(Nc1cnc2ccccc2c1)c1ccc(NC2CCOCC2)cc1 [N-Quinolin-3-yl-4-(tetrahydro-pyran-4-ylamino)-benzamide]	–	9%	–
O=C(Nc1cnc2ccccc2c1)c1ccc(N2CCSCC2)cc1 [N-Quinolin-3-yl-4-thiomorpholin-4-yl-benzamide]	–	41%	–
CC(C)=CCC[C@@H](C)CCN(C)c1ccc(C(=O)Nc2cnc3ccccc3c2)cc1 [R-4-{(3,7-Dimethyl-oct-6-enyl)-methyl-amino}-N-quinolin-3-yl-benzamide]	–	105%	11.1 nM
